Source: ChEMBL document CHEMBL4359860, “Tacrine-O-protected phenolics heterodimers as multitarget-directed ligands against Alzheimer's disease: Selective subnanomolar BuChE inhibitors” (Eur J Med Chem, 2019)
The source made the active and inactive calls. No cut-off for these calls is given here.

How the values were obtained:
HeLa = assay: Antiproliferative activity against human HeLa cells assessed as growth inhibition after 48 hrs by SRB assay; format: functional
[1] = Cytotoxicity against human hTERT-BJ cells assessed as growth inhibition after 48 hrs by SRB assay; format: cell-based
WiDr [2] = assay: Antiproliferative activity against human WiDr cells assessed as growth inhibition after 48 hrs by SRB assay; format: functional
HBL-100 = assay: Antiproliferative activity against human HBL100 cells assessed as growth inhibition after 48 hrs by SRB assay; format: functional; conditions: HBL-100, 48 h
A549 = assay: Antiproliferative activity against human A549 cells assessed as growth inhibition after 48 hrs by SRB assay; format: functional; conditions: A549, 48 h
Cholinesterase [3] = molecular target: T1, Cholinesterase (Equus caballus, UniProt P81908)
T1 sequence (P81908 whole entry): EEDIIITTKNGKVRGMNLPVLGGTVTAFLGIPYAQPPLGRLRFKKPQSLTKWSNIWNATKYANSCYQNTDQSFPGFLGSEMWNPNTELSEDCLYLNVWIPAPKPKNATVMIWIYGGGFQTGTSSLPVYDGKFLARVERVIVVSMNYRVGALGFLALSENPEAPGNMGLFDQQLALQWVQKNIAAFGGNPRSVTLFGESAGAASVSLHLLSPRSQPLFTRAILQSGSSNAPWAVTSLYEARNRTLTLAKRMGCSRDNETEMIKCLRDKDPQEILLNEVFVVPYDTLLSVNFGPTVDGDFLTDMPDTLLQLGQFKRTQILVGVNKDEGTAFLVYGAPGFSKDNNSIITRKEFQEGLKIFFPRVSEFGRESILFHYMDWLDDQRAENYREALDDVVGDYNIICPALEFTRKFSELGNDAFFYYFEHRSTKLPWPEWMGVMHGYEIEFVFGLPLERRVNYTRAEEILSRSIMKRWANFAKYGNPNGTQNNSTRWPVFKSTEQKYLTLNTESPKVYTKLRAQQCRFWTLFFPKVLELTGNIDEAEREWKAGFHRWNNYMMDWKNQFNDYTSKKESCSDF
Description: Inhibition of equine serum BuChE assessed as dissociation constant for enzyme-substrate-inhibitor complex using butyrylthiocholine iodide as substrate measured for 125 secs by Ellman's method

T47D [4] = assay: Antiproliferative activity against human T47D cells assessed as growth inhibition after 48 hrs by SRB assay; format: functional
Acetylcholinesterase [5] = molecular target: T2, Acetylcholinesterase (Electrophorus electricus, UniProt O42275)
T2 sequence (O42275 whole entry): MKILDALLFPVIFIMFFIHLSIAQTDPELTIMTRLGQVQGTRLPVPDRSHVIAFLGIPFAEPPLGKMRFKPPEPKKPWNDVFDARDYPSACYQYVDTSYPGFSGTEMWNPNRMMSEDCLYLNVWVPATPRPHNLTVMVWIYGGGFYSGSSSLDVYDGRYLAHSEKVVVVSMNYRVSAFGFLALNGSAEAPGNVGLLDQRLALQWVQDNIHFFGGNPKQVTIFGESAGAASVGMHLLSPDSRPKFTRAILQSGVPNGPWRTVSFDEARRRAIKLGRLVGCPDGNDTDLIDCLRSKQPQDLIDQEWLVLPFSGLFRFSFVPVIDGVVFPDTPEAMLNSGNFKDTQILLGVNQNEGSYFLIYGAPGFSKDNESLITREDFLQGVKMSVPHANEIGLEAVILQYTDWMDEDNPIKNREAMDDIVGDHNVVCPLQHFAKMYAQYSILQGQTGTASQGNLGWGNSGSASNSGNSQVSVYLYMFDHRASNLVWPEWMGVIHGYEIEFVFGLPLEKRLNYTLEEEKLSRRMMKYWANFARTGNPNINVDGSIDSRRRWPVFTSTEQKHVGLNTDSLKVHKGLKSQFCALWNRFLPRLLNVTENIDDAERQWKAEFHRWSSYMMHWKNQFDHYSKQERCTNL
Description: Inhibition of electric eel AChE assessed as dissociation constant for enzyme-inhibitor complex using acetylthiocholine iodide as substrate measured for 125 secs by Ellman's method

SW1573 = assay: Antiproliferative activity against human SW1573 cells assessed as growth inhibition after 48 hrs by SRB assay; format: functional; conditions: SW1573, 48 h
Cholinesterase [6] = molecular target: T1, Cholinesterase; remark: listed apart in the source
Description: Inhibition of equine serum BuChE assessed as dissociation constant for enzyme-inhibitor complex using butyrylthiocholine iodide as substrate measured for 125 secs by Ellman's method

Acetylcholinesterase [7] = molecular target: T2, Acetylcholinesterase; remark: listed apart in the source
Description: Inhibition of electric eel AChE assessed as dissociation constant for enzyme-substrate-inhibitor complex using acetylthiocholine iodide as substrate measured for 125 secs by Ellman's method

[8] = molecular target: Cholinesterase (Equus caballus) (UniProt P81908)
Chain of Cholinesterase (Equus caballus) (P81908 whole entry): as the sequence (P81908 whole entry) above

Cholinesterase [9] = molecular target: T3, Cholinesterase (Homo sapiens, UniProt P06276); assay: Inhibition of human serum BuChe by Ellman's method
T3 sequence (P06276 whole entry): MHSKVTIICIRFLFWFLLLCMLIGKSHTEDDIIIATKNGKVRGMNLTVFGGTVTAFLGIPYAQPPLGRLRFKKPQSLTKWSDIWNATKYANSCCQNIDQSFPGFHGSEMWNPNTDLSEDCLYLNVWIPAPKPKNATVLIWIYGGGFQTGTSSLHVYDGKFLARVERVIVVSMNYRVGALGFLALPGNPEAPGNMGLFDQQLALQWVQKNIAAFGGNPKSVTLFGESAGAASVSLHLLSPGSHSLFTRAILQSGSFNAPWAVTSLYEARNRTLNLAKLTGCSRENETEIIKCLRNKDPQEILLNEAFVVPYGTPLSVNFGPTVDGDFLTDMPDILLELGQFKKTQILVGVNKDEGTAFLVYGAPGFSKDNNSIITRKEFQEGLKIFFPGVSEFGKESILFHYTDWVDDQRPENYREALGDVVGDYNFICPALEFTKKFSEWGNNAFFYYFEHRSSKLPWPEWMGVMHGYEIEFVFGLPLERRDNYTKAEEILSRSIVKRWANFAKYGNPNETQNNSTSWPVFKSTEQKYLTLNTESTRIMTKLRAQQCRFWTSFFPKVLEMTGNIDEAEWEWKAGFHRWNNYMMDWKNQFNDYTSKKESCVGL

Acetylcholinesterase [10] = molecular target: Acetylcholinesterase (Homo sapiens, UniProt P22303); assay: Inhibition of human recombinant AChE expressed in HEK293 cells using […] as substrate preincubated with enzyme for 20 mins followed by substrate addition and measured after 5 mins by Ellman's method
Chain of Acetylcholinesterase (Homo sapiens, UniProt P22303) (P22303 whole entry): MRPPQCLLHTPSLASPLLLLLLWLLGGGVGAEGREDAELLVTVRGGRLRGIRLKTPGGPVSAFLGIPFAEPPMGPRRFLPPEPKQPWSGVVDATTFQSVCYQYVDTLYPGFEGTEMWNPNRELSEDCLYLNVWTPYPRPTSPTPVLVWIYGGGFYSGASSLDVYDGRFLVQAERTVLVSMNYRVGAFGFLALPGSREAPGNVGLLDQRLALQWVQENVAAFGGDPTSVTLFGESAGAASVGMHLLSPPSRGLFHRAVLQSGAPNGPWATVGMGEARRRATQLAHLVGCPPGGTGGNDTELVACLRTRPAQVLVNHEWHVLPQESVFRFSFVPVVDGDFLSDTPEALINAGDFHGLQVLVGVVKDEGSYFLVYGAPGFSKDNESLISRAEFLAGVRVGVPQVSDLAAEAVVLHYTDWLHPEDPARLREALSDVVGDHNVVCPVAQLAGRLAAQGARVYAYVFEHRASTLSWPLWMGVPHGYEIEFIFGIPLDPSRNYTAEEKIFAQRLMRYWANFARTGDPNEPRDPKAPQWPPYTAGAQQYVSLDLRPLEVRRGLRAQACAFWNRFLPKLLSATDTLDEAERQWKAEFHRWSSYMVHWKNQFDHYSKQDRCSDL

[11] = molecular target: Amyloid-beta precursor protein (Homo sapiens) (UniProt P05067); conditions: at 50 µM
Chain of Amyloid-beta precursor protein (Homo sapiens) (P05067 whole entry): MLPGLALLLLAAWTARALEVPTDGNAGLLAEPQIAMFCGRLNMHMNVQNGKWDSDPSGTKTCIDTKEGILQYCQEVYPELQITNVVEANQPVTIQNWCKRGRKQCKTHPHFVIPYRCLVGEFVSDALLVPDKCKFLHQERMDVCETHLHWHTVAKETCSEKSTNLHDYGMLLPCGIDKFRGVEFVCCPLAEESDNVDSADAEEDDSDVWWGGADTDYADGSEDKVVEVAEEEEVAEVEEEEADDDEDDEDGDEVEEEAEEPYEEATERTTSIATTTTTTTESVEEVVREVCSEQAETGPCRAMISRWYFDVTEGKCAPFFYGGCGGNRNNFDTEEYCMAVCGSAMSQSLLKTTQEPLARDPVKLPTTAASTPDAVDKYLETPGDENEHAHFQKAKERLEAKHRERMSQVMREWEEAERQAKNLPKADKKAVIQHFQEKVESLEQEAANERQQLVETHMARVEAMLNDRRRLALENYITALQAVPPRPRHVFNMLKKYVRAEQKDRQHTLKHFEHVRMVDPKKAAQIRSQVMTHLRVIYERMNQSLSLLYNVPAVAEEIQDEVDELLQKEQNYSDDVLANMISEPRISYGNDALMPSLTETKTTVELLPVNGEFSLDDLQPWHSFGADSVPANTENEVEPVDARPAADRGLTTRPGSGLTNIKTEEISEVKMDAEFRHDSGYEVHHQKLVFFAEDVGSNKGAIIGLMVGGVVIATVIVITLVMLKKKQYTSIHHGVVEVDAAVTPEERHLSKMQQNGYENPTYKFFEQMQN
Description: Inhibition of amyloid beta (1 to 42) (unknown origin) self aggregation at 50 uM incubated for 48 hrs by thioflavin-T fluorescence method relative to control

[12] = molecular target: Cholinesterase (Equus caballus) (UniProt P81908); remark: listed apart in the source
WiDr [13] = assay: Potency index, ratio of 5-FU GI50 to compound GI50 for human WiDr cells after 48 hrs by SRB assay; format: functional
[14] = Selectivity index, ratio of GI50 for human hTERT-BJ cells to GI50 for human T47D cells after 48 hrs by SRB assay; format: toxicity; conditions: hTERT-BJ cells and T47D cells, read-out: RatioGI50
T47D [15] = assay: Potency index, ratio of 5-FU GI50 to compound GI50 for human T47D cells after 48 hrs by SRB assay; format: functional
[16] = Selectivity index, ratio of GI50 for human hTERT-BJ cells to GI50 for human WiDr cells after 48 hrs by SRB assay; format: toxicity; conditions: hTERT-BJ cells and WiDr cells, read-out: RatioGI50
[17] = Cytotoxicity in rat Primary cerebellar granule neuron assessed as cell viability at 1 uM after 24 hrs by MTT assay; format: cell-based, Cerebellar granule neurone; conditions: primary cerebellar granule neurons, read-out: Activity
[18] = test system: Cerebellar granule neurone; assay: Neuroprotective activity against 6-OHDA-induced cytotoxicity in rat primary cerebellar granule neuron at 1 to 25 uM by MTT assay; format: functional, cell-based
HepG2 = assay: Cytotoxicity against human HepG2 cells at 1 to 25 uM after 24 hrs by MTT assay; format: cell-based; conditions: hepg2, 24 h
Cholinesterase [19] = molecular target: T3, Cholinesterase; assay: Potency index, ratio of tacrine IC50 to compound IC50 for human serum BuChe by Ellman's method

SMILES: c1ccc2c(N3CCCC3)c3c(nc2c1)CCCC3
- GI50 (HeLa): 18000 nM
- GI50 at 48 h [1]: 50000 nM
- GI50 (WiDr [2]): 21000 nM
- GI50 (HBL-100): 27000 nM
- GI50 (A549): 24000 nM
- Ki (Cholinesterase [3]): 304 nM
- GI50 (T47D [4]): 18000 nM
- Ki (Acetylcholinesterase [5]): 3200 nM
- GI50 (SW1573): 26000 nM
- Ki (Cholinesterase [6]): 1200 nM

SMILES: c1ccc(COc2ccc(CCNc3c4c(nc5ccccc35)CCCC4)cc2)cc1
- Ki (Cholinesterase [3]): 1.1 nM
- Ki (Acetylcholinesterase [7]): 610 nM
- Ki (Acetylcholinesterase [5]): 1600 nM
- Ki (Cholinesterase [6]): 22 nM

SMILES: Oc1ccc(CNc2c3c(nc4ccccc24)CCCC3)cc1
- Ki (Cholinesterase [3]): 3.2 nM
- Ki (Acetylcholinesterase [7]): 81 nM
- Ki (Acetylcholinesterase [5]): 370 nM
- inhibition [8]: Active
- Ki (Cholinesterase [6]): 12 nM

SMILES: Oc1ccc(CNc2c3c(nc4ccccc24)CCCC3)cc1O
- IC50 (Cholinesterase [9]): 74.8 nM
- IC50 (Acetylcholinesterase [10]): 100 nM
- Ki (Cholinesterase [3]): 3.2 nM
- Ki (Acetylcholinesterase [7]): 190 nM
- Ki (Acetylcholinesterase [5]): 190 nM
- Ki (Cholinesterase [6]): 25 nM

SMILES: Oc1cc(/C=N/c2c3c(nc4ccccc24)CCCC3)cc(O)c1O
- IC50 (Cholinesterase [9]): 120 nM
- IC50 (Acetylcholinesterase [10]): 1040 nM
- Ki (Cholinesterase [3]): 5.8 nM
- Ki (Acetylcholinesterase [7]): 170 nM
- Ki (Acetylcholinesterase [5]): 400 nM
- Ki (Cholinesterase [6]): 51 nM

SMILES: COc1ccc(CNc2c3c(nc4ccccc24)CCCC3)cc1OC
- Ki (Cholinesterase [3]): 6.4 nM
- Ki (Acetylcholinesterase [7]): 210 nM
- Ki (Acetylcholinesterase [5]): 640 nM
- Ki (Cholinesterase [6]): 31 nM

SMILES: COc1ccc(/C=N/c2c3c(nc4ccccc24)CCCC3)cc1OC
- GI50 (HeLa): 43000 nM
- GI50 at 48 h [1]: 16000 nM
- GI50 (WiDr [2]): 31000 nM
- GI50 (HBL-100): 43000 nM
- GI50 (A549): 34000 nM
- Ki (Cholinesterase [3]): 35 nM
- Ki (Acetylcholinesterase [7]): 1900 nM
- GI50 (T47D [4]): 35000 nM
- Ki (Acetylcholinesterase [5]): 2500 nM
- inhibition [8]: Active
- GI50 (SW1573): 39000 nM
- Ki (Cholinesterase [6]): 271 nM

SMILES: Oc1ccc(CCOCCCCCNc2c3c(nc4ccccc24)CCCC3)cc1
- inhibition [11]: 54.4%
- IC50 (Cholinesterase [9]): 6.06 nM
- IC50 (Acetylcholinesterase [10]): 142 nM
- Ki (Cholinesterase [3]): 4.5 nM
- Ki (Acetylcholinesterase [7]): 100 nM
- Ki (Acetylcholinesterase [5]): 140 nM
- inhibition [12]: Active

SMILES: BrCCCCCOCCc1ccc(OCc2ccccc2)cc1
- GI50 (HeLa): > 100000 nM
- GI50 (WiDr [2]): > 100000 nM
- GI50 (HBL-100): > 100000 nM
- GI50 (A549): 93000 nM
- GI50 (T47D [4]): 92000 nM
- GI50 (SW1573): > 100000 nM

SMILES: O=c1[nH]cc(F)c(=O)[nH]1 [FLUOROURACIL]
- GI50 (HeLa): 15000 nM
- GI50 (WiDr [2]): 49000 nM
- GI50 (HBL-100): 5500 nM
- GI50 (T47D [4]): 47000 nM
- GI50 (SW1573): 4300 nM

SMILES: C(=N\c1c2c(nc3ccccc13)CCCC2)/c1cc(OCc2ccccc2)c(OCc2ccccc2)c(OCc2ccccc2)c1
- Ki (Cholinesterase [3]): 192 nM
- Ki (Acetylcholinesterase [7]): 3000 nM
- Ki (Acetylcholinesterase [5]): 2300 nM
- Ki (Cholinesterase [6]): 704 nM

SMILES: Oc1ccc(CNCCCCCCNc2c3c(nc4ccccc24)CCCC3)cc1O
- IC50 (Cholinesterase [9]): 22.9 nM
- IC50 (Acetylcholinesterase [10]): 29 nM
- Ki (Cholinesterase [3]): 1.7 nM
- Ki (Acetylcholinesterase [7]): 58 nM
- Ki (Acetylcholinesterase [5]): 120 nM
- Ki (Cholinesterase [6]): 7.9 nM

SMILES: Oc1ccc(/C=N/c2c3c(nc4ccccc24)CCCC3)cc1
- IC50 (Cholinesterase [9]): 194 nM
- IC50 (Acetylcholinesterase [10]): 1470 nM
- Ki (Cholinesterase [3]): 17 nM
- Ki (Acetylcholinesterase [7]): 1800 nM
- Ki (Acetylcholinesterase [5]): 3000 nM
- inhibition [12]: Active

SMILES: Oc1ccc(/C=N/c2c3c(nc4ccccc24)CCCC3)cc1O
- IC50 (Cholinesterase [9]): 41.5 nM
- IC50 (Acetylcholinesterase [10]): 609 nM
- Ki (Cholinesterase [3]): 1.9 nM
- Ki (Acetylcholinesterase [7]): 820 nM
- Ki (Acetylcholinesterase [5]): 2100 nM
- Ki (Cholinesterase [6]): 11 nM

SMILES: C(=N\c1c2c(nc3ccccc13)CCCC2)/c1ccc(OCc2ccccc2)c(OCc2ccccc2)c1
- Ki (Cholinesterase [3]): 173 nM
- Ki (Acetylcholinesterase [7]): 20000 nM
- Ki (Acetylcholinesterase [5]): 24000 nM
- Ki (Cholinesterase [6]): 637 nM

SMILES: Oc1ccc(CCOCCCCCNc2c3c(nc4ccccc24)CCCC3)cc1O
- IC50 (Cholinesterase [9]): 35.6 nM
- IC50 (Acetylcholinesterase [10]): 542 nM
- Ki (Cholinesterase [3]): 9 nM
- Ki (Acetylcholinesterase [7]): 77 nM
- Ki (Acetylcholinesterase [5]): 210 nM
- inhibition [8]: Active
- Ki (Cholinesterase [6]): 43 nM

SMILES: COc1ccc(CCOCCCCCNc2c3c(nc4ccccc24)CCCC3)cc1
- inhibition [11]: 63.5%
- IC50 (Cholinesterase [9]): 2.92 nM
- IC50 (Acetylcholinesterase [10]): 216 nM
- Ki (Cholinesterase [3]): 2.9 nM
- Ki (Acetylcholinesterase [7]): 75 nM
- Ki (Acetylcholinesterase [5]): 75 nM
- Ki (Cholinesterase [6]): 29 nM

SMILES: Oc1ccc(CCNc2c3c(nc4ccccc24)CCCC3)cc1
- Ki (Acetylcholinesterase [7]): 32 nM
- Ki (Acetylcholinesterase [5]): 110 nM
- inhibition [12]: Active
- Ki (Cholinesterase [6]): 184 nM

SMILES: COc1ccc(CNCCCCCNc2c3c(nc4ccccc24)CCCC3)cc1OC
- Ki (Cholinesterase [3]): 9.9 nM
- Ki (Acetylcholinesterase [7]): 120 nM
- Ki (Acetylcholinesterase [5]): 160 nM
- Ki (Cholinesterase [6]): 30 nM

SMILES: c1ccc2c(N3CCCCC3)c3c(nc2c1)CCCC3
- GI50 (HeLa): 13000 nM
- GI50 at 48 h [1]: 25000 nM
- RatioGI50 (WiDr [13]): 10
- GI50 (WiDr [2]): 4500 nM
- GI50 (HBL-100): 19000 nM
- GI50 (A549): 11000 nM
- selectivity ratio at 48 h [14]: 5
- Ki (Cholinesterase [3]): 275 nM
- Ki (Acetylcholinesterase [7]): 2500 nM
- GI50 (T47D [4]): 5200 nM
- Ki (Acetylcholinesterase [5]): 1800 nM
- RatioGI50 (T47D [15]): 10
- GI50 (SW1573): 13000 nM
- Ki (Cholinesterase [6]): 1900 nM
- selectivity ratio at 48 h [16]: 5

SMILES: c1ccc(COc2ccc(CCOCCCCCNc3c4c(nc5ccccc35)CCCC4)cc2)cc1
- inhibition [11]: 70%
- IC50 (Cholinesterase [9]): 6.95 nM
- IC50 (Acetylcholinesterase [10]): 454 nM
- Ki (Cholinesterase [3]): 1.5 nM
- Ki (Acetylcholinesterase [7]): 110 nM
- Ki (Acetylcholinesterase [5]): 110 nM
- Ki (Cholinesterase [6]): 1.9 nM

SMILES: Oc1ccc(CCNc2c3c(nc4ccccc24)CCCC3)cc1O
- Ki (Cholinesterase [3]): 28 nM
- Ki (Acetylcholinesterase [7]): 590 nM
- Ki (Acetylcholinesterase [5]): 870 nM
- Ki (Cholinesterase [6]): 128 nM

SMILES: c1ccc(COc2ccc(CCNc3c4c(nc5ccccc35)CCCC4)cc2OCc2ccccc2)cc1
- Ki (Cholinesterase [3]): 1.1 nM
- Ki (Acetylcholinesterase [7]): 610 nM
- Ki (Acetylcholinesterase [5]): 1600 nM
- Ki (Cholinesterase [6]): 22 nM

SMILES: c1ccc(COc2ccc(CCOCCCCCNc3c4c(nc5ccccc35)CCCC4)cc2OCc2ccccc2)cc1
- inhibition [11]: 75.3%
- viability at 24 h, 1 µM [17]: 50%
- IC50 (Cholinesterase [9]): 0.497 nM
- Activity [18]: inactive
- IC50 (Acetylcholinesterase [10]): 506 nM
- Activity (HepG2): Toxic
- Ratio IC50 (Cholinesterase [19]): 85
- Ki (Cholinesterase [3]): 2.7 nM
- Ki (Acetylcholinesterase [7]): 130 nM
- Ki (Acetylcholinesterase [5]): 340 nM
- Ki (Cholinesterase [6]): 4.6 nM

SMILES: C(=N\c1c2c(nc3ccccc13)CCCC2)/c1ccc(OCc2ccccc2)cc1
- Ki (Cholinesterase [3]): 643 nM
- Ki (Acetylcholinesterase [7]): 23000 nM
- Ki (Acetylcholinesterase [5]): 39000 nM
- Ki (Cholinesterase [6]): 2920 nM
